Molecules are shown by their SMILES.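 Where inhibition never reached the appropriate level, the endpoint shown equals the highest concentration tested. Otherwise, values were interpolated linearly from a five-concentration, 48-hour dose response in 96-well plates. Abbreviation: GI50, concentration required for 50% inhibition of growth. Definition used: TGI = concentration required for complete inhibition of growth.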 Some results are limits rather than exact numbers.

The values below come from PubChem BioAssay (NCI).

Among the test systems are A498 renal; ACHN renal; CCRF-CEM leukemia; HL-60(TB) leukemia; MCF7 breast; NCI-H522 lung; OVCAR-5 ovarian; RPMI-8226 leukemia; SK-MEL-5 melanoma; SNB-75 CNS.
Common to all, as to experiment: NCI-60 cell line screen, 48 h

On to `O=C(CCN1CCCC1)Nc1ccc2c(NCCc3ccccc3)c3ccccc3nc2c1`, for which the GI50 in the assay with A498 renal was 0.422 µM; in the assay on ACHN renal it was 0.51 µM; with CCRF-CEM leukemia it was 0.311 µM; with HL-60(TB) leukemia it was 0.389 µM; in the assay on MCF7 breast, 0.305 µM; in the assay with NCI-H522 lung, 0.308 µM. Further, the GI50 in the assay with OVCAR-5 ovarian was 0.506 µM; in the assay with RPMI-8226 leukemia, 0.32 µM; in the assay on SK-MEL-5 melanoma it was 1.27 µM; with SNB-75 CNS it was 0.453 µM. For the same compound, the TGI with A498 renal is 1.8 µM; in the assay with ACHN renal, 2.02 µM; with CCRF-CEM leukemia, 1.77 µM; with HL-60(TB) leukemia, 1.67 µM; in the assay on MCF7 breast it was 1.14 µM; with NCI-H522 lung it was 1.27 µM. In addition, the TGI with OVCAR-5 ovarian came out at 2.13 µM; with RPMI-8226 leukemia, 1.15 µM; with SK-MEL-5 melanoma, 2.55 µM; in the assay with SNB-75 CNS it was 1.7 µM.

With `Cc1cn([C@H]2C[C@H](O)[C@@H](CO)O2)c(=O)nc1N`, the TGI in the assay with A498 renal, with ACHN renal, in the assay on CCRF-CEM leukemia, with HL-60(TB) leukemia, in the assay with MCF7 breast and in the assay with NCI-H522 lung was above 100 µM throughout. The TGI in the assay with OVCAR-5 ovarian, with RPMI-8226 leukemia, with SK-MEL-5 melanoma and in the assay with SNB-75 CNS was above 100 µM each time.

On to `COc1cc(C(=O)O/N=C(\N)Cc2cccc3ccccc23)cc(OC)c1OC`, for which the GI50 in the assay with A498 renal was 5.79 µM; with ACHN renal, 7.11 µM; with CCRF-CEM leukemia, 3.62 µM; with HL-60(TB) leukemia, 5.35 µM; in the assay on MCF7 breast it was 2.57 µM; with NCI-H522 lung, 1.87 µM. In addition, the GI50 is 13 µM with OVCAR-5 ovarian, 3.02 µM in the assay with RPMI-8226 leukemia, 2.05 µM in the assay on SK-MEL-5 melanoma and 2.8 µM in the assay with SNB-75 CNS. For the same compound, the TGI stood at 60.7 µM with A498 renal; 20.3 µM in the assay on ACHN renal; 23.3 µM with CCRF-CEM leukemia; 36.5 µM in the assay with HL-60(TB) leukemia; 8.81 µM with MCF7 breast; 3.7 µM in the assay on NCI-H522 lung. Moreover, the TGI was found to be 26.5 µM in the assay on OVCAR-5 ovarian, 12.6 µM in the assay on RPMI-8226 leukemia, 4.71 µM in the assay on SK-MEL-5 melanoma and 15.6 µM in the assay on SNB-75 CNS.

For the compound `CCCCCCCCCCC[C@@H](C[C@H]1OC(=O)[C@H]1CCCCCC)OC(=O)[C@@H](CC(C)C)NC=O`, the GI50 is 4.64 µM with A498 renal; 8.63 µM in the assay with ACHN renal; 1.31 µM with CCRF-CEM leukemia; 1.75 µM in the assay on HL-60(TB) leukemia; 3.07 µM in the assay with MCF7 breast; 5.56 µM in the assay on NCI-H522 lung. The GI50 in the assay on OVCAR-5 ovarian was 21.7 µM; with RPMI-8226 leukemia, 0.855 µM; with SK-MEL-5 melanoma it was 2.8 µM; with SNB-75 CNS, 2.55 µM. The TGI is 29.9 µM in the assay with A498 renal; above 100 µM in the assay with ACHN renal; 76.4 µM in the assay with CCRF-CEM leukemia; 4.34 µM with HL-60(TB) leukemia; 13.8 µM in the assay with MCF7 breast; 26.4 µM with NCI-H522 lung. For the same compound, the TGI in the assay with OVCAR-5 ovarian was above 100 µM; with RPMI-8226 leukemia, 8.81 µM; with SK-MEL-5 melanoma, 10.4 µM; in the assay on SNB-75 CNS, 12.6 µM.

`COc1cc(OC)c(F)c(COc2cnc(Nc3cnn(CCO)c3)nc2)c1F`: the GI50 was below 0.0107 µM in the assay with A498 renal; 0.669 µM with CCRF-CEM leukemia; 0.245 µM in the assay on HL-60(TB) leukemia; 0.417 µM in the assay with MCF7 breast; 0.341 µM in the assay on NCI-H522 lung; 2.08 µM in the assay on OVCAR-5 ovarian. The GI50 in the assay on RPMI-8226 leukemia is 1.03 µM; in the assay with SK-MEL-5 melanoma, 0.501 µM; in the assay on SNB-75 CNS, 0.203 µM. The TGI with A498 renal was 0.138 µM; with CCRF-CEM leukemia, above 100 µM; in the assay with HL-60(TB) leukemia, 0.702 µM; in the assay on MCF7 breast, above 100 µM; with NCI-H522 lung, 1.65 µM; in the assay with OVCAR-5 ovarian, above 100 µM. Besides, the TGI is above 100 µM in the assay on RPMI-8226 leukemia, 2.71 µM in the assay on SK-MEL-5 melanoma and 2.32 µM in the assay on SNB-75 CNS.

Take `Fc1ccc([C@@H]2CCNC[C@H]2COc2ccc3c(c2)OCO3)cc1`: the GI50 in the assay on A498 renal was 5.52 µM; with ACHN renal, 10.8 µM; in the assay with HL-60(TB) leukemia it was 4.95 µM; with MCF7 breast, 3.23 µM; in the assay with NCI-H522 lung, 12 µM; in the assay on OVCAR-5 ovarian, 14.3 µM. Further, the values for the GI50 in the assay with RPMI-8226 leukemia, in the assay with SK-MEL-5 melanoma and in the assay with SNB-75 CNS were 2.4 µM, 4.42 µM and 1.32 µM, respectively. The TGI in the assay with A498 renal amounted to 19.2 µM; in the assay on ACHN renal, 24 µM; with HL-60(TB) leukemia, 19.9 µM; with MCF7 breast, 14.6 µM; with NCI-H522 lung, 25.4 µM; in the assay with OVCAR-5 ovarian it was 28.4 µM. The TGI was found to be 8.9 µM in the assay on RPMI-8226 leukemia, 17 µM in the assay on SK-MEL-5 melanoma and 7.61 µM in the assay with SNB-75 CNS.

With `CN(C)c1ccc2cc3ccc(N(C)C)cc3nc2c1`, the TGI came to 9.01 µM with A498 renal; 3.67 µM with ACHN renal; 3.66 µM in the assay on HL-60(TB) leukemia; 11.5 µM in the assay on MCF7 breast; 7.56 µM with NCI-H522 lung; 9.82 µM in the assay with OVCAR-5 ovarian. Besides, the TGI was 4.09 µM with RPMI-8226 leukemia, 8.34 µM in the assay with SK-MEL-5 melanoma and 11.9 µM with SNB-75 CNS.
